Measured values reported in article PMC11494455 (Nature chemical biology, 2022).

Target: THP4.1 biosensor (Salmonella typhimurium, UniProt Q8ZR43)
Experiment: Dose response and ligand response of the THP4.1 biosensor
Type: cell-based
Conditions: pThpR reporter

Chain of THP4.1 biosensor (Q8ZR43 whole entry): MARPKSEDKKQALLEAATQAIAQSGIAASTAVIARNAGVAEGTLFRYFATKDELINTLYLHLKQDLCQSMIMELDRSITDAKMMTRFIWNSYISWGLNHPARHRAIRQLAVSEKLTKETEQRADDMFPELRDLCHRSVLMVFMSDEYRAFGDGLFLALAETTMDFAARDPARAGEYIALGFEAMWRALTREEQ

Q: With `COc1ccc(C[C@@H]2NCCc3cc(OC)c(O)cc32)cc1O` [norreticuline] as the compound, how does the “responsiveness of THP4.1” value read?
A: The value was “somewhat responsive”.
